# According to ChEMBL document CHEMBL6134788, “Development of naphthalimide hydrazide derivatives as potent antibacterial agents against carbapenem-resistant A. baumannii” (RSC Med Chem, 2024):
# The source made the active and inactive calls. The rule behind the calls is not given here.
# Columns and labels:
# Acinetobacter baumannii [1] = assay: Antibacterial activity against carbapenem-resistant Acinetobacter baumannii BAA 1605 assessed as inhibition of bacterial growth by measuring fractional inhibitory concentration incubated 24 hrs in presence of levofloxacin by checkerboard method; type: functional
# Acinetobacter baumannii [2] = assay: Antibacterial activity against carbapenem-resistant Acinetobacter baumannii BAA 1605 assessed as inhibition of bacterial growth incubated 24 hrs in presence of levofloxacin by checkerboard method; type: functional
# Acinetobacter baumannii [3] = assay: Antibacterial activity against carbapenem-resistant Acinetobacter baumannii BAA 1605 assessed as inhibition of bacterial growth by measuring minocycline MIC incubated 24 hrs by checkerboard method; type: functional
# Acinetobacter baumannii [4] = assay: Synergistic antibacterial activity against carbapenem-resistant Acinetobacter baumannii BAA 1605 assessed as inhibition of bacterial growth by measuring tobramycin MIC incubated 24 hrs by checkerboard method; type: functional
# Klebsiella pneumoniae = assay: Antibacterial activity against Klebsiella pneumoniae BAA 1705 assessed as inhibition of bacterial growth incubated for 16 to 18 hrs by CLSI protocol based method; type: functional; settings: time 16-18 hrs, read-out: MIC100
# [5] = Cytotoxicity against African green monkey Vero cells assessed as reduction in cell viability incubated for 72 hrs by MTT assay; type: toxicity, cell-based; settings: chlorocebus sabaeus
# Acinetobacter baumannii [6] = assay: Antibacterial activity against multi-drug resistant Acinetobacter baumannii clinical isolate 3 assessed as inhibition of bacterial growth incubated for 16 to 18 hrs by CLSI protocol based method; type: functional; settings: time 16-18 hrs, read-out: MIC100
# Acinetobacter baumannii [7] = assay: Antibacterial activity against carbapenem-resistant Acinetobacter baumannii BAA 1605 assessed as inhibition of bacterial growth by measuring amikacin MIC incubated 24 hrs by checkerboard method; type: functional
# Acinetobacter baumannii [8] = assay: Antibacterial activity against multi-drug resistant Acinetobacter baumannii Naval-17 assessed as inhibition of bacterial growth incubated for 16 to 18 hrs by CLSI protocol based method; type: functional; settings: time 16-18 hrs, read-out: MIC100
# Acinetobacter baumannii [9] = assay: Antibacterial activity against carbapenem-resistant Acinetobacter baumannii BAA 1605 assessed as inhibition of bacterial growth by measuring fractional inhibitory concentration incubated 24 hrs in presence of rifampicin by checkerboard method; type: functional
# Acinetobacter baumannii [10] = assay: Antibacterial activity against carbapenem-resistant Acinetobacter baumannii BAA 1605 assessed as polymyxin B MIC by measuring fractional inhibitory concentration incubated 24 hrs by checkerboard method relative to polymyxin B alone; type: functional
# Acinetobacter baumannii [11] = assay: Antibacterial activity against multi-drug resistant Acinetobacter baumannii NR-17777 assessed as inhibition of bacterial growth incubated for 16 to 18 hrs by CLSI protocol based method; type: functional; settings: time 16-18 hrs, read-out: MIC100
# Acinetobacter baumannii [12] = assay: Antibacterial activity against multi-drug resistant Acinetobacter baumannii clinical isolate 4 assessed as inhibition of bacterial growth incubated for 16 to 18 hrs by CLSI protocol based method; type: functional; settings: time 16-18 hrs, read-out: MIC100
# Acinetobacter baumannii [13] = assay: Antibacterial activity against multi-drug resistant Acinetobacter baumannii clinical isolate 6 assessed as inhibition of bacterial growth incubated for 16 to 18 hrs by CLSI protocol based method; type: functional; settings: time 16-18 hrs, read-out: MIC100
# Acinetobacter baumannii [14] = assay: Synergistic antibacterial activity against carbapenem-resistant Acinetobacter baumannii BAA 1605 assessed as inhibition of bacterial growth incubated 24 hrs in presence of tobramycin by checkerboard method; type: functional
# Acinetobacter baumannii [15] = assay: Antibacterial activity against multi-drug resistant Acinetobacter baumannii 5-189 assessed as inhibition of bacterial growth incubated for 16 to 18 hrs by CLSI protocol based method; type: functional; settings: time 16-18 hrs, read-out: MIC100
# Acinetobacter baumannii [16] = assay: Antibacterial activity against multi-drug resistant Acinetobacter baumannii WL-487 assessed as inhibition of bacterial growth incubated for 16 to 18 hrs by CLSI protocol based method; type: functional; settings: time 16-18 hrs, read-out: MIC100
# Acinetobacter baumannii [17] = assay: Antibacterial activity against multi-drug resistant Acinetobacter baumannii 5-032 assessed as inhibition of bacterial growth incubated for 16 to 18 hrs by CLSI protocol based method; type: functional; settings: time 16-18 hrs, read-out: MIC100
# Acinetobacter baumannii [18] = assay: Antibacterial activity against multi-drug resistant Acinetobacter baumannii clinical isolate 11 assessed as inhibition of bacterial growth incubated for 16 to 18 hrs by CLSI protocol based method; type: functional; settings: time 16-18 hrs, read-out: MIC100
# Acinetobacter baumannii [19] = assay: Antibacterial activity against carbapenem-resistant Acinetobacter baumannii BAA 1605 assessed as reduction in bacterial growth incubated for 24 hrs by time-kill kinetics analysis; type: functional, organism-based
# Staphylococcus aureus = assay: Antibacterial activity against Staphylococcus aureus ATCC 29213 assessed as inhibition of bacterial growth incubated for 16 to 18 hrs by CLSI protocol based method; type: functional; settings: time 16-18 hrs, read-out: MIC100
# Acinetobacter baumannii [20] = assay: Antibacterial activity against Acinetobacter baumannii ATCC 17978 assessed as inhibition of bacterial growth incubated for 16 to 18 hrs by CLSI protocol based method; type: functional; settings: time 16-18 hrs, read-out: MIC100
# Acinetobacter baumannii [21] = assay: Antibacterial activity against carbapenem-resistant Acinetobacter baumannii BAA 1605 assessed as tobramycin MIC by measuring fractional inhibitory concentration incubated 24 hrs by checkerboard method relative to tobramycin alone; type: functional
# [22] = Selectivity index, ratio of CC50 for cytotoxicity against African green monkey VERO cells to MIC for antibacterial activity against carbapenem-resistant Acinetobacter baumannii BAA 1605 assessed as inhibition of bacterial growth; type: toxicity, cell-based; settings: read-out: Selectivity Index
# Acinetobacter baumannii [23] = assay: Antibacterial activity against multi-drug resistant Acinetobacter baumannii clinical isolate 12 assessed as inhibition of bacterial growth incubated for 16 to 18 hrs by CLSI protocol based method; type: functional; settings: time 16-18 hrs, read-out: MIC100
# Acinetobacter baumannii [24] = assay: Antibacterial activity against multi-drug resistant Acinetobacter baumannii clinical isolate 7 assessed as inhibition of bacterial growth incubated for 16 to 18 hrs by CLSI protocol based method; type: functional; settings: time 16-18 hrs, read-out: MIC100
# Acinetobacter baumannii [25] = assay: Antibacterial activity against carbapenem-resistant Acinetobacter baumannii BAA 1605 assessed as inhibition of bacterial growth by measuring fractional inhibitory concentration incubated 24 hrs in presence of minocycline by checkerboard method; type: functional
# Acinetobacter baumannii [26] = assay: Antibacterial activity against multi-drug resistant Acinetobacter baumannii Naval-81 assessed as inhibition of bacterial growth incubated for 16 to 18 hrs by CLSI protocol based method; type: functional; settings: time 16-18 hrs, read-out: MIC100
# Acinetobacter baumannii [27] = assay: Antibacterial activity against carbapenem-resistant Acinetobacter baumannii BAA 1605 assessed as rifampicin MIC by measuring fractional inhibitory concentration incubated 24 hrs by checkerboard method relative to rifampicin alone; type: functional
# Acinetobacter baumannii [28] = assay: Antibacterial activity against multi-drug resistant Acinetobacter baumannii Naval-18 assessed as inhibition of bacterial growth incubated for 16 to 18 hrs by CLSI protocol based method; type: functional; settings: time 16-18 hrs, read-out: MIC100
# Acinetobacter baumannii [29] = assay: Antibacterial activity against carbapenem-resistant Acinetobacter baumannii BAA 1605 assessed as inhibition of bacterial growth by measuring fractional inhibitory concentration incubated 24 hrs in presence of polymyxin B by checkerboard method; type: functional
# Acinetobacter baumannii [30] = assay: Antibacterial activity against multi-drug resistant Acinetobacter baumannii WL-136 assessed as inhibition of bacterial growth incubated for 16 to 18 hrs by CLSI protocol based method; type: functional; settings: time 16-18 hrs, read-out: MIC100
# Acinetobacter baumannii [31] = assay: Antibacterial activity against carbapenem-resistant Acinetobacter baumannii BAA 1605 assessed as inhibition of bacterial growth by measuring rifampicin MIC incubated 24 hrs by checkerboard method; type: functional
# Acinetobacter baumannii [32] = assay: Antibacterial activity against multi-drug resistant Acinetobacter baumannii 5-143 assessed as inhibition of bacterial growth incubated for 16 to 18 hrs by CLSI protocol based method; type: functional; settings: time 16-18 hrs, read-out: MIC100
# Acinetobacter baumannii [33] = assay: Antibacterial activity against carbapenem-resistant Acinetobacter baumannii BAA 1605 assessed as inhibition of bacterial growth by measuring polymyxin B MIC incubated 24 hrs by checkerboard method; type: functional
# Acinetobacter baumannii [34] = assay: Antibacterial activity against multi-drug resistant Acinetobacter baumannii clinical isolate 10 assessed as inhibition of bacterial growth incubated for 16 to 18 hrs by CLSI protocol based method; type: functional; settings: time 16-18 hrs, read-out: MIC100
# Acinetobacter baumannii [35] = assay: Antibacterial activity against carbapenem-resistant Acinetobacter baumannii BAA 1605 assessed as inhibition of bacterial growth incubated 24 hrs in presence of rifampicin by checkerboard method; type: functional
compound,measurement,setting,value
O=C(CCN1C(=O)c2cccc3cccc(c23)C1=O)NNc1ccc(Br)cc1,FIC,Acinetobacter baumannii [1],1
same,MIC,Acinetobacter baumannii [2],1 µg/mL
same,MIC,Acinetobacter baumannii [3],4 µg/mL
same,MIC,Acinetobacter baumannii [4],1 µg/mL
same,MIC,Klebsiella pneumoniae,> 64 µg/mL
same,CC50 at 72 h,[5],> 100 µg/mL
same,MIC,Acinetobacter baumannii [6],0.25 µg/mL
same,MIC,Acinetobacter baumannii [7],2 µg/mL
same,MIC,Acinetobacter baumannii [8],1 µg/mL
same,FIC,Acinetobacter baumannii [9],0.5
same,FIC,Acinetobacter baumannii [10],0.5
same,MIC,Acinetobacter baumannii [11],0.5 µg/mL
same,MIC,Acinetobacter baumannii [12],0.5 µg/mL
same,MIC,Acinetobacter baumannii [13],0.5 µg/mL
same,MIC,Acinetobacter baumannii [14],0.25 µg/mL
same,MIC,Acinetobacter baumannii [15],0.5 µg/mL
same,MIC,Acinetobacter baumannii [16],0.5 µg/mL
same,MIC,Acinetobacter baumannii [17],0.5 µg/mL
same,MIC,Acinetobacter baumannii [18],4 µg/mL
same,Activity,Acinetobacter baumannii [19],inactive
same,MIC,Staphylococcus aureus,> 64 µg/mL
same,MIC,Acinetobacter baumannii [20],0.5 µg/mL
same,FIC,Acinetobacter baumannii [21],0.25
same,selectivity ratio,[22],> 200
same,MIC,Acinetobacter baumannii [23],0.5 µg/mL
same,MIC,Acinetobacter baumannii [24],0.5 µg/mL
same,FIC,Acinetobacter baumannii [25],1
same,MIC,Acinetobacter baumannii [26],0.5 µg/mL
same,FIC,Acinetobacter baumannii [27],0.5
same,MIC,Acinetobacter baumannii [28],0.5 µg/mL
same,FIC,Acinetobacter baumannii [29],0.25
same,MIC,Acinetobacter baumannii [30],0.5 µg/mL
same,MIC,Acinetobacter baumannii [31],2 µg/mL
same,MIC,Acinetobacter baumannii [32],0.25 µg/mL
same,MIC,Acinetobacter baumannii [33],0.25 µg/mL
same,MIC,Acinetobacter baumannii [34],0.5 µg/mL
same,MIC,Acinetobacter baumannii [35],0.5 µg/mL
